Laboratory results from patent publication US5585382A, “Polycyclic and heterocyclic chromophores for bis-imide tumoricidals” (The DuPont Merck Pharmaceutical Company, priority 1995, dated 1996).
In brackets after ≈: the same amount, converted by molar mass. Read-outs that look alike come from different tables or passages of the source. Values belong to the molecule of their own block, whether it stands above or below them.

What was measured:
[1] = system: Clone A human colon cancer cells; experiment: In vitro growth inhibition of Clone A cells (MTT, 72 hr); assay type: cell-based; conditions: read-out: Clone A IC50
Description: (§1) The reagents for tissue culture were purchased from GIBCO (Grand Island, N.Y.). 5-Dimethylthiazol-2-yl)-2,5-diphenyl tetrazolium bromide (MTT) was purchased from Sigma Chemical Company (St. Louis, Mo.). All agents were prepared as 2 mg/ml stock solutions in DMSO. MTT was prepared as a 1 mg/ml stock solution in Dulbecco's phosphate buffered saline (PBS). All stocks were stored frozen in the dark at -20° C.
(§2) Clone A human colon cancer cells were isolated from the heterogeneous DLD-1 colon tumor line and maintained as previously described (Dexter, D. L.; Barbosa, J. A.; Calabresi, P. Cancer Research 1979, 39, 1020; Dexter, D. L.; Spremulli, E. M.; Fligiel, A.; Barbosa, J. A.; Vogel, R.; Van Vorhees, A.; Calabresi, P. Am. J. Med. 1981, 71, 949.). Murine leukemia L1210 cells were maintained in RPMI-L medium as described (Chen, S.-F.; Ruben, R. L.; Dexter, D. L. Cancer Research 1986, 46, 5014.). All cell lines were incubated at 37° C. in a humidified atmosphere of 5% CO2 -95% air.
(§3) Exponentially growing L1210 cells (1×10^3), or Clone A cells (8×10^2) in 0.1 ml medium were seeded in a 96-well microtiter plate on day 0. On day one, 0.1 ml aliquots of medium containing graded concentrations of test compounds were added to the cell plates. After incubation at 37° C. in a humidified incubator for 72 hr, the plates containing L1210 cells were centrifuged briefly and 100 μl of the growth medium was removed. Cell cultures were incubated with 50 μl of MTT for 4 h at 37° C. (12). The resulting purple formazan precipitate was solubilized with 200 μl of 0.04 N HCl in isopropyl alcohol. Absorbance was read in a Titertek Multiskan MCC scanning well spectrophotometer (Flow Laboratories) at a test wavelength of 570 nm and a reference wavelength of 630 nm. The absorbances were stored on a floppy disk on an IBM-XT and uploaded onto a VAX computer. IC50 values were determined by a computer program that fit the data to the following equation:
(§4) Y=((Am -Ao)/(1+(X/IC50)^n))+Ao
(§5) where Am =absorbance of the control cells; Ao =absorbance of the cells in the presence of highest compound concentration; Y=observed absorbance; X=compound concentration; IC50 =dose of compound that inhibits the number of population doublings of cells to one half that of the number of population doublings of the control cells; and n equals the slope of the straight portion of the curve.
(§6) The values reported in the table are from at least one experiment performed in eight replicates. If more than one experiment was performed, the number reported is the average of all the trials

[2] = system: Murine leukemia L1210 cells; experiment: In vitro growth inhibition of L1210 cells (MTT, 72 hr); assay type: cell-based; conditions: Mus musculus, read-out: L1210 IC50
Description: as §1, §2, §3, §4, §5, §6

SMILES: CS(=O)(=O)O.CS(=O)(=O)O.CS(=O)(=O)O.O=C1c2cccc3c2c(cc2ccncc23)C(=O)N1CCCCNCCCN1C(=O)c2cccc3c2c(cc2ccncc23)C1=O [Example 14, 4-[3-(6-Azaphenanthrene-1,10-dicarboximido)propylamino]-1-(6-azaphenanthrene-1,10-dicarboximido) butane Trihydromethanesulfonate]
IC50 ([1]; Clone A cells, 72 hr, MTT): 0.003 µg/mL | IC50 ([2]; L1210 cells, 72 hr, MTT): 0.008 µg/mL | solubility (Solubility in water): 900 µg/mL

SMILES: CS(=O)(=O)O.Cc1cccc2c1cc1c3c(cccc32)C(=O)N(CCCCNCCCN2C(=O)c3cccc4c3c(cc3c(C)cccc34)C2=O)C1=O [Example 42, 4-[3-(8-Methylphenanthrene-1,10-dicarboximido)propylamino]-1-(8-methylphenanthrene-1, 10-dicarboximido)butane Hydromethanesulfonate]
IC50 ([1]; 72 h): 0.271 µg/mL | IC50 ([2]; L1210, 72 h): 0.137 µg/mL | solubility (Solubility in water): 60 µg/mL

SMILES: CS(=O)(=O)O.Cc1c2c3c(cccc3c3ccccc13)C(=O)N(CCCCNCCCN1C(=O)c3cccc4c3c(c(C)c3ccccc34)C1=O)C2=O [Example 43, 4-[3-(9-Methylphenanthrene-1,10-dicarboximido)propylamino]-1-(9-methylphenanthrene-1, 10-dicarboximido)butane Hydromethanesulfonate]
IC50 ([1]; 72 h): 0.4 µg/mL | IC50 ([2]; L1210, 72 h): 0.357 µg/mL | solubility (Solubility in water): 40 µg/mL

IC50 ([1]; Clone A cells, 72 hr, MTT): 0.002 µg/mL (≈ 0.00329 µM) | IC50 ([2]; L1210 cells, 72 hr, MTT): 0.002 µg/mL (≈ 0.00329 µM) | solubility (Solubility in water): 810 µg/mL (≈ 1330 µM)
SMILES: O=C1c2cccc3c2c(cc2cnccc23)C(=O)N1CCCCNCCCN1C(=O)c2cccc3c2c(cc2cnccc23)C1=O [Example 15, 4-[3-(7-Azaphenanthrene-1,10-dicarboximido)propylamino]-1-(7-azaphenanthrene-1,10dicarboximido) butane 2.5-Hydromethanesulfonate]

SMILES: CS(=O)(=O)O.O=C1c2cccc3c2c(cc2ccoc23)C(=O)N1CCCCNCCCN1C(=O)c2cccc3c2c(cc2ccoc23)C1=O [Example 80, 4-[3-(Naphtho[1,2-b]furan-5,6-dicarboximido)propylamino]-1-(naphtho[1,2-b]furan-5,6-dicarboximido)butane Hydromethanesulfonate]
IC50 ([1]; Clone A cells, 72 hr, MTT): 0.635 µg/mL | IC50 ([2]; L1210 cells, 72 hr, MTT): 0.389 µg/mL | solubility (Solubility in water): 420 µg/mL

SMILES: CS(=O)(=O)O.O=C1c2cccc3c2c(cc2ccccc23)C(=O)N1CCCCNCCCN1C(=O)c2cccc3c2c(cc2ccccc23)C1=O [Example 40, 4-[3-(Phenanthrene-1, 10-dicarboximido)propylamino]-1-(phenanthrene-1, 10-dicarboximido) butane Hydromethanesulfonate]
IC50 ([1]; 72 h): 0.412 µg/mL | IC50 ([2]; L1210, 72 h): 0.098 µg/mL | solubility (Solubility in water): 60 µg/mL

SMILES: CS(=O)(=O)O.Cc1cnc2c(c1)cc1c3c(cc([N+](=O)[O-])cc32)C(=O)N(CCCCNCCCN2C(=O)c3cc([N+](=O)[O-])cc4c3c(cc3cc(C)cnc34)C2=O)C1=O [Example 12, 4-[3-(3-Nitro-7-methyl-5-azaphenanthrene-1, 10-dicarboximido)propylamino]-1-(3-nitro-7-methyl-5-azaphenanthrene-1, 10-dicarboximido)butane Hydromethanesulfonate]
IC50 ([1]; 72 h): 0.009 µg/mL | IC50 ([2]; L1210, 72 h): 0.027 µg/mL | solubility (Solubility in water): 50 µg/mL

IC50 ([2]; L1210 cells, 72 hr, MTT): 0.011 µg/mL (≈ 0.0183 µM) | solubility (Solubility in water): 290 µg/mL (≈ 482 µM)
SMILES: O=C1c2cccc3cc([N+](=O)[O-])cc(c23)C(=O)N1CCCCNCCCN1C(=O)c2cccc3c2c(cc2cccnc23)C1=O [Example 124]

SMILES: CS(=O)(=O)O.CS(=O)(=O)O.CS(=O)(=O)O.Cc1nc2cc3c4c(cccc4c2[nH]1)C(=O)N(CCCCNCCCN1C(=O)c2cccc4c2c(cc2nc(C)[nH]c24)C1=O)C3=O [Example 81, 4-[3-(2-Methyl-1H-naphth[1,2-d]imidazole-5,6-dicarboximido)propylamino]-1-(2-methyl-1H-naphth[1,2-d]imidazole-5,6-dicarboximido)butane Trihydromethanesulfonate]
IC50 ([1]; Clone A cells, 72 hr, MTT): 22.2 µg/mL | IC50 ([2]; L1210 cells, 72 hr, MTT): 0.201 µg/mL | solubility (Solubility in water): 7600 µg/mL

SMILES: CS(=O)(=O)O.O=C1c2cccc3c2c(cc2ccc(F)cc23)C(=O)N1CCCCNCCCN1C(=O)c2cccc3c2c(cc2ccc(F)cc23)C1=O [Example 56, 4-[3-(6-Fluorophenanthrene-1,10-dicarboximido)propylamino]-1-(6-fluorophenanthrene-1,10-dicarboximido)butane Hydromethanesulfonate]
IC50 ([1]; 72 h): 0.222 µg/mL | IC50 ([2]; L1210, 72 h): 0.365 µg/mL | solubility (Solubility in water): 40 µg/mL

SMILES: CS(=O)(=O)O.O=C1c2cccc3c2c(cc2ccc(C(F)(F)F)cc23)C(=O)N1CCCCNCCCN1C(=O)c2cccc3c2c(cc2ccc(C(F)(F)F)cc23)C1=O [Example 44, 4-(3-[6-(Trifluoromethyl)phenanthrene-1,10-dicarboximido]propylamino)-1-[6-(trifluoromethyl)phenanthrene-1, 10dicarboximido]butane Hydromethanesulfonate]
IC50 ([1]; 72 h): 1.01 µg/mL | IC50 ([2]; L1210, 72 h): 0.888 µg/mL | solubility (Solubility in water): 270 µg/mL

SMILES: CS(=O)(=O)O.CS(=O)(=O)O.CS(=O)(=O)O.Nc1cc2c3c(cc4cccnc4c3c1)C(=O)N(CCCCNCCCN1C(=O)c3cc(N)cc4c3c(cc3cccnc34)C1=O)C2=O [Example 9, 4-[3-(3-Amino-5-azaphenanthrene-1,10-dicarboximido)propylamino]-1-(3-amino-5-azaphenanthrene-1, 10-dicarboximido)butane Trihydromethanesulfonate]
IC50 ([1]; Clone A cells, 72 hr, MTT): 0.166 µg/mL | IC50 ([2]; L1210 cells, 72 hr, MTT): 0.182 µg/mL | solubility (Solubility in water): 11000 µg/mL

SMILES: CS(=O)(=O)O.Cc1nc2cc3c4c(cccc4c2s1)C(=O)N(CCCCNCCCN1C(=O)c2cccc4c2c(cc2nc(C)sc24)C1=O)C3=O [Example 82, 4-[3-(2-Methylnaphtho[2,1-d]thiazole-5,6-dicarboximido)propylamino]-1-(2-methylnaphtho[2,1-d]thiazole-5,6-dicarboximido)butane Hydromethanesulfonate]
IC50 ([1]; Clone A cells, 72 hr, MTT): 0.068 µg/mL | IC50 ([2]; L1210 cells, 72 hr, MTT): 0.082 µg/mL | solubility (Solubility in water): 4500 µg/mL

SMILES: C[C@H](CNCCNC[C@@H](C)N1C(=O)c2cccc3c2c(cc2ccc(F)cc23)C1=O)N1C(=O)c2cccc3cc([N+](=O)[O-])cc(c23)C1=O [Example 120]
IC50 ([1]; 72 h): 0.013 µg/mL (≈ 0.0201 µM) | IC50 ([2]; L1210, 72 h): 0.261 µg/mL (≈ 0.403 µM)

SMILES: C[C@H](CNCCNC[C@@H](C)N1C(=O)c2cccc3c2c(cc2ccc(C(F)(F)F)cc23)C1=O)N1C(=O)c2cccc3cc([N+](=O)[O-])cc(c23)C1=O [Example 121]
IC50 ([1]; 72 h): 0.032 µg/mL (≈ 0.0459 µM) | IC50 ([2]; L1210, 72 h): 0.397 µg/mL (≈ 0.569 µM)

SMILES: C[C@H](CNCCNC[C@@H](C)N1C(=O)c2cc([N+](=O)[O-])cc3c2c(cc2cccnc23)C1=O)N1C(=O)c2cccc3cc([N+](=O)[O-])cc(c23)C1=O [Example 123]
IC50 ([2]; L1210 cells, 72 hr, MTT): 0.013 µg/mL (≈ 0.0192 µM) | solubility (Solubility in water): 5770 µg/mL (≈ 8540 µM)

SMILES: CS(=O)(=O)O.Cc1ccc2cc3c4c(cccc4c2c1)C(=O)N(CCCCNCCCN1C(=O)c2cccc4c2c(cc2ccc(C)cc24)C1=O)C3=O [Example 41, 4-[3-(6-Methylphenanthrene-1,10-dicarboximido)propylamino]-1-(6-methylphenanthrene-1, 10-dicarboximido)butane Hydromethanesulfonate]
IC50 ([1]; 72 h): 0.804 µg/mL | IC50 ([2]; L1210, 72 h): 0.317 µg/mL

SMILES: COc1cc2cc3c4c(cccc4c2cc1OC)C(=O)N(CCCCNCCCN1C(=O)c2cccc4c2c(cc2cc(OC)c(OC)cc24)C1=O)C3=O.CS(=O)(=O)O [Example 55, 4-[3-(6,7-Dimethoxyphenanthrene-1,10-dicarboximido)propylamino]-1-(6,7-dimethoxyphenanthrene-1,10-dicarboximido)butane Hydromethanesulfonate]
IC50 ([1]; 72 h): 5.43 µg/mL | IC50 ([2]; L1210, 72 h): 0.356 µg/mL
